Target: PFKFB3 (Homo sapiens (Human), UniProt Q16875)
Test: PFKFB3 kinase activity, Method A (F-2,6-P2 production, coupled PPi-PFK/NADH assay)
Type: biochemical
Excerpt: The PFKFB3 (placenta form) and PFKFB4 were produced and purified to homogeneity from E. coli at Biovitrum and at Sprint Bioscience. All other reagents were purchased from commercial sources. Two independent methods have been used for determination of the kinase activity of PFKFB3 (Method A and Method B). Method B has been used for determination of the kinase activity of PFKFB4.
Method A: The kinase activity of the bi-functional enzyme is readily quantified based on the production of F-2,6-P2 as described by Van Schaftingen et al. (1982) Eur. J. Biochem. 129, 191-5. This sensitive assay is based on the potent activation of pyrophosphate dependent phosphofructokinase-1 (PPi-PFK) from potato tubers by F-2,6-P2. The use of a series of coupled enzymes leads to a consumption of NADH (nicotinamide adenine dinucleotide) that can be followed spectrophotometrically (an updated protocol is available in Van Schaftingen, (1984) Methods of Enzymatic Analysis (Bergmeyer, H. U., ed.), 3rd edn., vol. 6, pp. 335-341, Verlag Chemie, Weinheim). A protocol for measurements in 96-well microtiter plate format is also available (Bruni et al., (1989) Anal. Biochem. 178, 324-6). These assay protocols have been adopted for the measurement of the kinase activity of PFKFB3 with some modifications as described in the protocol below.
The assay was run in 96-well microtiter plates (Costar 3365 round bottom polypropylene) by consecutive additions of 30 μl each of a test compound solution (diluted from a DMSO stock solution), a PFKFB3 solution and a substrate (fructose-6-phosphate (F6P) and adenosine-5′-triphosphate (ATP)) containing solution. […] The final concentrations of all reagents in a total assay volume of 90 μl per well were: • 50 mM Tris-acetate at pH 8.0 • 0.1 mM EDTA (ethylene diamine tetraacetic acid) • 10 mM MgCl2 • 5 mM Na2HPO4 (buffered by the Tris-acetate to a final pH of 8.0) • 5 nM PFKFB3 • 4 μM ATP • 100 μM F6P (acid treated and then neutralized to remove any contaminating F-2,6-P2; see Van Schaftingen, 1984) • 1 mM dithiothreitol (DTT) • 0.005% Tween-20
A test compound at various concentrations (which also added 0.83% DMSO to the final solution)
The enzymatic reaction was allowed to proceed for 10 minutes at room temperature while on a plate shaker at medium speed (750 RPM). The reaction was then terminated by the addition of 90 μl of a 0.4 M NaOH solution to all wells. The plate was then placed on the plateshaker at the same speed for two minutes to allow sufficient mixing. All samples were then diluted by a factor of 10 by transferring 20 μl from each well to the corresponding well of a new plate with 180 μl distilled water predispensed to all wells.
The next step in the protocol was quantification of the levels of F-2,6-P2 in each well of the microtiter plate. This was done by transferring 20 μl of the content in each well to the corresponding position in a new plate (Nunc 269620 transparent 96-well plate). […] To ensure that all measured values were within the linear range of the response (measured to be between 0-1 nM of F-2,6-P2 as also described by Van Schaftingen) the same volume of a 2.5 nM and a 5.0 nM standard sample were also added to column 12 (as all samples were diluted five-fold in the assay procedure this corresponds to 0.5 and 1.0 nM samples). The procedure then involved consecutive additions of three solutions with the following premixed components: • Assay-mix (20 μl): Tris-acetate at pH 8.0, NADH and Mg(OAc)2 • PPi/F6P-mix (40 μl): Pyrophosphate and F6P • Enzyme-mix (20 μl): Tris-acetate at pH 8.0, aldolase, triose phosphate isomerase, glycerol-3-phosphate dehydrogenase, pyrophosphate-dependent phosphofructokinase from potato tubers and bovine serum albumin (BSA) […]

PFKFB3, sequence (Q16875 whole entry): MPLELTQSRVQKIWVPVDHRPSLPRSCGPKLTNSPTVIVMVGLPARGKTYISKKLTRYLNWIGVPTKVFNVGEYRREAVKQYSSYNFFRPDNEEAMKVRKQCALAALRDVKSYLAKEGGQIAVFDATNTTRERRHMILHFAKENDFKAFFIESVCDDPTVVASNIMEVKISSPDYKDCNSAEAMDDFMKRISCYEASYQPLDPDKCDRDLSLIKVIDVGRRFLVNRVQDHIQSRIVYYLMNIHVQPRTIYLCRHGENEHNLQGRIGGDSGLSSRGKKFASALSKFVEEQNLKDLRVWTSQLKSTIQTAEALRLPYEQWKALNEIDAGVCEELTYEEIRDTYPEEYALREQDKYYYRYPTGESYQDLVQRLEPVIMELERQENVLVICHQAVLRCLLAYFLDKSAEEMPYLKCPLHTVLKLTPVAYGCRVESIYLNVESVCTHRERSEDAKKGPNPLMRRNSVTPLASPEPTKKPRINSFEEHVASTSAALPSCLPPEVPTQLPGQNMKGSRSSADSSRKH

| SMILES | IC50 [nM] |
| --- | --- |
| O=S(=O)(Nc1cccc(-c2nnn[nH]2)c1)c1ccc(-c2cnco2)s1 [Example 2, 5-(1,3-Oxazol-5-yl)-N-[3-(1H-tetrazol-5-yl)phenyl]thiophene-2-sulfonamide] | 3910 |
| NC(=O)c1cccc(-c2ccc(S(=O)(=O)Nc3cccc(-c4nnn[nH]4)c3)s2)c1 [Example 58, 3-[5-[[3-(1H-Tetrazol-5-yl)phenyl]sulfamoyl]-2-thienyl]benzamide] | 540 |
| Cc1c(S(=O)(=O)Nc2cccc(-c3nnn[nH]3)c2)sc2ccc(N)cc12 [Example 48, 5-Amino-3-methyl-N-[3-(1H-tetrazol-5-yl)phenyl]-1-benzothiophene-2-sulfonamide] | 360 |
| O=S(=O)(Nc1cccc(-c2nnn[nH]2)c1)c1ccc(-c2nsc(Cl)n2)s1 [Example 59, 5-(5-Chloro-1,2,4-thiadiazol-3-yl)-N-[3-(1H-tetrazol-5-yl)phenyl]thiophene-2-sulfonamide] | 560 |
| O=S(=O)(Nc1cccc(-c2nnn[nH]2)c1)c1ccc(Cl)c(Cl)c1Cl [Example 1, 2,3,4-Trichloro-N-[3-(1H-tetrazol-5-yl)phenyl]benzenesulfonamide] | 280 |
| O=S(=O)(Nc1cccc(-c2nnn[nH]2)c1)c1ccc(-c2cnco2)cc1 [Example 83, 4-(1,3-Oxazol-5-yl)-N-[3-(1H-tetrazol-5-yl)phenyl]benzenesulfonamide] | 8450 |
| O=S(=O)(Nc1cccc(-c2nnn[nH]2)c1)c1ccc(F)cc1Cl [Example 81, 2-Chloro-4-fluoro-N-[3-(1H-tetrazol-5-yl)phenyl]benzenesulfonamide] | 9840 |
| O=S(=O)(Nc1cccc(-c2nnn[nH]2)c1)c1cccc(-c2ccc(F)cc2)c1 [Example 17, 4′-Fluoro-N-[3-(1H-tetrazol-5-yl)phenyl]biphenyl-3-sulfonamide] | 450 |
| O=S(=O)(Nc1cccc(-c2nnn[nH]2)c1)c1ccc2ccccc2c1 [Example 20, N-[3-(1H-Tetrazol-5-yl)phenyl]naphthalene-2-sulfonamide] | 850 |
| O=S(=O)(Nc1cccc(-c2nnn[nH]2)c1)c1cccc(-c2ccc(C(F)(F)F)cc2)c1 [Example 55, N-[3-(1H-Tetrazol-5-yl)phenyl]-3-[4-(trifluoromethyl)phenyl]benzenesulfonamide] | 5750 |
| O=S(=O)(Nc1cccc(-c2nnn[nH]2)c1)c1ccc(Br)cc1C(F)(F)F [Example 56, 4-Bromo-N-[3-(1H-tetrazol-5-yl)phenyl]-2-(trifluoromethyl)benzenesulfonamide] | 1120 |
| O=S(=O)(Nc1cccc(-c2nnn[nH]2)c1)c1cccc(-c2cc(Cl)cc(Cl)c2)c1 [Example 52, 3-(3,5-Dichlorophenyl)-N-[3-(1-H-tetrazol-5-yl)phenyl]benzenesulfonamide] | 2540 |
| Cc1nc(-c2ccc(S(=O)(=O)Nc3cccc(-c4nnn[nH]4)c3)s2)cs1 [Example 25, 5-(2-Methyl-1,3-thiazol-4-yl)-N-[3-(1H-tetrazol-5-yl)phenyl]thiophene-2-sulfonamide] | 310 |
| COc1ccc(-c2cccc(S(=O)(=O)Nc3cccc(-c4nnn[nH]4)c3)c2)cc1 [Example 19, 4′-Methoxy-N-[3-(1H-tetrazol-5-yl)phenyl]biphenyl-3-sulfonamide] | 720 |
| Cc1cc(Cl)cc(Cl)c1S(=O)(=O)Nc1cccc(-c2nnn[nH]2)c1 [Example 53, 2,4-Dichloro-6-methyl-N-[3-(1H-tetrazol-5-yl)phenyl]benzenesulfonamide] | 1780 |
| O=S(=O)(Nc1cccc(-c2nnn[nH]2)c1)c1ccc(-c2ccccc2)cc1 [Example 31, N-[3-(1H-Tetrazol-5-yl)phenyl]biphenyl-4-sulfonamide] | 1390 |

Continued, values first:

| IC50 [nM] | SMILES |
| --- | --- |
| 5070 | CC(=O)Nc1ccc2sc(S(=O)(=O)Nc3cccc(C(=O)O)c3)c(C)c2c1 [Example 49, 3-({[5-(Acetylamino)-3-methyl-1-benzothien-2-yl]sulfonyl}amino)benzoic acid] |
| 280 | Cc1c(S(=O)(=O)Nc2cccc(C(=O)O)c2)oc2ccc(C(C)C)cc12 [Example 14, 3-{[(5-Isopropyl-3-methyl-1-benzofuran-2-yl)sulfonyl]amino}benzoic acid] |
| 6690 | O=C(O)c1cccc(NS(=O)(=O)c2ccc(-c3ccccn3)s2)c1 [Example 78, 3-{[(5-Pyridin-2-yl-2-thienyl)sulfonyl]amino}benzoic acid] |
| 1020 | Cc1c(S(=O)(=O)Nc2cccc(-c3nnn(CC(=O)O)n3)c2)sc2ccc(C(C)C)cc12 [Example 12, [5-(3-{[(5-Isopropyl-3-methyl-1-benzothien-2-yl)sulfonyl]amino}phenyl)-2H-tetrazol-2-yl]acetic acid] |
| 850 | Cc1c(S(=O)(=O)Nc2cc(C(=O)O)cc([N+](=O)[O-])c2)sc2ccc(C(C)C)cc12 [Example 11, 3-{[(5-Isopropyl-3-methyl-1-benzothien-2-yl)sulfonyl]amino}-5-nitrobenzoic acid] |
| 80 | Cc1c(S(=O)(=O)Nc2cccc(-c3nnn[nH]3)c2)oc2ccc(C(C)C)cc12 [Example 13, 5-Isopropyl-3-methyl-N-[3-(1H-tetrazol-5-yl)phenyl]-1-benzofuran-2-sulfonamide] |
| 730 | Cc1c(S(=O)(=O)Nc2cncc(C(=O)O)c2)sc2ccc(C(C)C)cc12 [Example 9, 5-{[(5-Isopropyl-3-methyl-1-benzothien-2-yl)sulfonyl]amino}nicotinic acid] |
| 230 | Cc1c(S(=O)(=O)Nc2cccc(CC(=O)O)c2)sc2ccc(C(C)C)cc12 [Example 15, (3-{[(5-Isopropyl-3-methyl-1-benzothien-2-yl)sulfonyl]amino}phenyl)acetic acid] |
| 610 | Cc1nc(NS(=O)(=O)c2sc3ccc(C(C)C)cc3c2C)sc1C(=O)O [Example 8, 2-{[(5-Isopropyl-3-methyl-1-benzothien-2-yl)sulfonyl]amino}-4-methyl-1,3-thiazole-5-carboxylic acid] |
| 6310 | O=C(O)c1cccc(NS(=O)(=O)c2ccc(-c3ccon3)s2)c1 [Example 79, 3-{[(5-Isoxazol-3-yl-2-thienyl)sulfonyl]amino}benzoic acid] |
| 810 | Cc1c(S(=O)(=O)Nc2cccc(C(=O)O)n2)sc2ccc(C(C)C)cc12 [Example 10, 6-{[(5-Isopropyl-3-methyl-1-benzothien-2-yl)sulfonyl]amino}pyridine-2-carboxylic acid] |

Reference: US9233946B2, “Sulfonamide compounds” (KANCERA AB, priority 2010, dated 2016)
